By IC50 is commonly meant the concentration at which inhibition is half-maximal.

Starred links: 1 amine or outer side, 2 acyl side, 3 side chain; linkers in the order of their positions; H or OH if unused. Positions of bridges follow the written chain, without caps; N, C: chain ends. Non-standard residues stand in square brackets, D forms with d. Residues, ends and D or L forms follow the SMILES beside them. *: point of attachment. X3 = O=C(O)CCCCCCCCCCCCCCCCC(=O)N[C@@H](CCC(=O)NCCCOCCOCCOCCCN*)C(=O)O; X1 = O=C(O)CCCCCCCCCCCCCCC(=O)N[C@@H](CCC(=O)NCCCOCCOCCOCCCN*)C(=O)O; Trp(4-aza,1-CH2COOH) = N[C@@H](Cc1cn(CC(=O)O)c2cccnc12)C(=O)O; Trp(7-aza,1-CH2COOH) = N[C@@H](Cc1cn(CC(=O)O)c2ncccc12)C(=O)O; Trp(1-CH2CO2Me) = COC(=O)Cn1cc(C[C@H](N)C(=O)O)c2ccccc21; X6 = COc1ccc2c(c1)c(C[C@H](N[*:1])C(=O)[*:2])cn2CC(=O)O; X2 = O=C(O)Cn1cc(C[C@@H](N[*:1])C(=O)[*:2])c2cccnc21; Hyp = O=C(O)[C@@H]1C[C@@H](O)CN1; NMeNle = CCCC[C@H](NC)C(=O)O; NMeA = CN[C@@H](C)C(=O)O; Dab = NCC[C@H](N)C(=O)O; Dap = NC[C@H](N)C(=O)O

The target of this experiment is T1, PD-1-Ig binding to PD-L1-TVMV-His (PD-L1-His) (Homo sapiens, UniProt Q9NZQ7).
T1 construct: hPDL1(19-239)-TVMV-His; TVMV protease cleavage site (C); made in house; host or cells: HEK293T cells
T1 sequence (Q9NZQ7 with tags, fused parts or gaps): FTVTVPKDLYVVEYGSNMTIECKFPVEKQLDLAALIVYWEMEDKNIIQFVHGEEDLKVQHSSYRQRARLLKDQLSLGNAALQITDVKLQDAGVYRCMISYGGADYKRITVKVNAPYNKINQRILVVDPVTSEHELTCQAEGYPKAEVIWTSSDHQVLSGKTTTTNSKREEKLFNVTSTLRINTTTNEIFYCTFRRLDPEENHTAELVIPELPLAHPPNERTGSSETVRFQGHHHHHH
The experiment in a line: PD-1/PD-L1 Homogenous Time-Resolved Fluorescence (HTRF) binding assay. The settings on record: PD-1-Ig (20 nM) / PD-L1-His (10 nM); range classes; read-out: LE HTRF hPD1 hPDL1 IC50. From the text:
Methods for Testing the Ability of Macrocyclic Peptides to Compete for the Binding of Pd-1 to Pd-L1 Using Homogenous Time-Resolved Fluorescence (HTRF) Binding Assays
The ability of the macrocyclic peptides of the present disclosure to bind to PD-L1 was investigated using a PD-1/PD-L1 Homogenous Time-Resolved Fluorescence (HTRF) binding assay.
Homogenous Time-Resolved Fluorescence (HTRF) Assays of Binding of Soluble PD-1 to Soluble PD-L1. Soluble PD-1 and soluble PD-L1 refers to proteins with carboxyl-end truncations that remove the transmembrane-spanning regions and are fused to heterologous sequences, specifically the Fc portion of the human immunoglobuling G sequence (Ig) or the hexahistidine epitope tag (His). All binding studies were performed in an HTRF assay buffer consisting of dPBS supplemented with 0.1% (w/v) bovine serum albumin and 0.05% (v/v) Tween-20. For the PD-1-Ig/PD-L1-His binding assay, inhibitors were pre-incubated with PD-L1-His (10 nM final) for 15 m in 4 μl of assay buffer, followed by addition of PD-1-Ig (20 nM final) in 1 μl of assay buffer and further incubation for 15 m. PD-L1 fusion proteins from either human, cynomologous macaques, mouse, or other species were used. HTRF detection was achieved using europium crypate-labeled anti-Ig monoclonal antibody (1 nM final) and allophycocyanin (APC) labeled anti-His monoclonal antibody (20 nM final). Antibodies were diluted in HTRF detection buffer and 5 μl was dispensed on top of binding reaction. The reaction was allowed to equilibrate for 30 minutes and signal (665 nm/620 nm ratio) was obtained using an EnVision fluorometer. Additional binding assays were established between PD-1-Ig/PD-L2-His (20 and 5 nM, respectively), CD80-His/PD-L1-Ig (100 and 10 nM, respectively) and CD80-His/CTLA4-Ig (10 and 5 nM, respectively). Binding/competition studies between biotinylated Compound No. 71 and human PD-L1-His were performed as follows. Macrocyclic peptide inhibitors were pre-incubated with PD-L1-His (10 nM final) for 60 minutes in 4 μl of assay buffer followed by addition of biotinylated Compound No. 71 (0.5 nM final) in 1 μl of assay buffer. Binding was allowed to equilibrate for 30 minutes followed by addition of europium crypated labeled Streptavidin (2.5 pM final) and APC-labeled anti-His (20 nM final) in 5 μl of HTRF buffer. The reaction was allowed to equilibrate for 30 m and signal (665 nm/620 nm ratio) was obtained using an EnVision fluorometer.
Recombinant Proteins. Carboxyl-truncated human PD-1 (amino acids 25-167) with a C-terminal human Ig epitope tag [hPD-1 (25-167)-3S-IG] and human PD-L1 (amino acids 18-239) with a C-terminal His epitope tag [hPD-L1(19-239)-tobacco vein mottling virus protease cleavage site (TVMV)-His] were expressed in HEK293T cells and purified sequentially by recombinant Protein A affinity chromatography and size exclusion chromatography. Human PD-L2-His (Sino Biologicals), CD80-His (Sino Biologicals), CTLA4-Ig (RnD Systems) were all obtained through commercial sources.
Ranges are as follows: A=0.010-0.060 μM; B=0.0011-0.009 μM; C=0.0003-0.0010 μM.
(In general: Time-resolved FRET reads energy transfer from a long-lived donor to a nearby acceptor.)
With `CCCC[C@H]1C(=O)N(C)[C@@H](CCCC)C(=O)N[C@@H](CC(C)C)C(=O)N[C@H](C(=O)N[C@@H](Cc2cn(CCOCCOCCOCCOCCOCCOCCOCCOCCOCCOCCOCCNC(=O)CC[C@H](NC(=O)CCCCCCCCCCCCCCCCC(=O)O)C(=O)O)nn2)C(=O)O)CSCC(=O)N[C@@H](Cc2ccc(O)cc2)C(=O)N(C)[C@@H](C)C(=O)N[C@@H](CC(N)=O)C(=O)N2CCC[C@H]2C(=O)N[C@@H](CN)C(=O)N[C@@H](CC(C)C)C(=O)N2C[C@H](O)C[C@H]2C(=O)N[C@@H](Cc2c[nH]c3ccccc23)C(=O)N[C@@H](CCN)C(=O)N[C@@H](Cc2cn(CC(=O)O)c3cccnc23)C(=O)N1C` [Example 26], the IC50 lay within 1.1 to 9 nM.

For `CCCC[C@H]1C(=O)N(C)[C@@H](CCCC)C(=O)N[C@@H](CC(C)C)C(=O)N[C@H](C(=O)NCC(=O)N[C@@H](CC(=O)NCCCOCCOCCOCCCNC(=O)CC[C@H](NC(=O)CCCCCCCCCCCCCCCCC(=O)O)C(=O)O)C(=O)O)CSCC(=O)N[C@@H](Cc2ccc(O)cc2)C(=O)N(C)[C@@H](C)C(=O)N[C@@H](CC(N)=O)C(=O)N2CCC[C@H]2C(=O)N[C@@H](CN)C(=O)N[C@@H](CC(C)C)C(=O)N2C[C@H](O)C[C@H]2C(=O)N[C@@H](Cc2c[nH]c3ccccc23)C(=O)N[C@@H](CCN)C(=O)N[C@@H](Cc2cn(CC(=O)OC)c3ccccc23)C(=O)N1C` [Example 9] ({CH2CO}-Y[NMeA]NP[Dap]L[Hyp]W[Dab][Trp(1-CH2CO2Me)][NMeNle][NMeNle]LCGD(X3)-OH; thioether N-14), the IC50 is 0.3 to 1 nM.

For the compound `CCCC[C@H]1C(=O)N(C)[C@@H](CCCC)C(=O)N[C@@H](CC(C)C)C(=O)N[C@H](C(=O)NCC(=O)N[C@@H](CC(=O)NCCCOCCOCCOCCCNC(=O)CC[C@H](NC(=O)CCCCCCCCCCCCCCC(=O)O)C(=O)O)C(=O)O)CSCC(=O)N[C@@H](Cc2ccc(O)cc2)C(=O)N(C)[C@@H](C)C(=O)N[C@@H](CC(N)=O)C(=O)N2CCC[C@H]2C(=O)N[C@@H](CN)C(=O)N[C@@H](CC(C)C)C(=O)N2C[C@H](O)C[C@H]2C(=O)N[C@@H](Cc2c[nH]c3ccccc23)C(=O)N[C@@H](CCN)C(=O)N[C@H](Cc2cn(CC(=O)O)c3ncccc23)C(=O)N1C` [Example 20] ({CH2CO}-Y[NMeA]NP[Dap]L[Hyp]W[Dab][X2][NMeNle][NMeNle]LCGD(X1)-OH; thioether N-14), the IC50 is 10 to 60 nM.

For `CCCC[C@H]1C(=O)N(C)[C@@H](CCCC)C(=O)N[C@@H](CC(C)C)C(=O)N[C@H](C(=O)NCC(=O)N[C@@H](CC(=O)NCCCOCCOCCOCCCNC(=O)CC[C@H](NC(=O)CCCCCCCCCCCCCCC(=O)O)C(=O)O)C(=O)O)CSCC(=O)N[C@@H](Cc2ccc(O)cc2)C(=O)N(C)[C@@H](C)C(=O)N[C@@H](CC(N)=O)C(=O)N2CCC[C@H]2C(=O)N[C@@H](CN)C(=O)N[C@@H](CC(C)C)C(=O)N2C[C@H](O)C[C@H]2C(=O)N[C@@H](Cc2c[nH]c3ccccc23)C(=O)N[C@@H](CCN)C(=O)N[C@@H](Cc2cn(CC(=O)O)c3ncccc23)C(=O)N1C` [Example 19] ({CH2CO}-Y[NMeA]NP[Dap]L[Hyp]W[Dab][Trp(7-aza,1-CH2COOH)][NMeNle][NMeNle]LCGD(X1)-OH; thioether N-14), the IC50 fell in the range of 1.1 to 9 nM.

Consider `CCCC[C@H]1C(=O)N(C)[C@@H](CCCC)C(=O)N[C@@H](CC(C)C)C(=O)N[C@H](C(=O)NCC(=O)N[C@@H](CC(=O)NCCCOCCOCCOCCCNC(=O)CC[C@H](NC(=O)CCCCCCCCCCCCCCCCC(=O)O)C(=O)O)C(=O)O)CSCC(=O)N[C@@H](Cc2ccc(O)cc2)C(=O)N(C)[C@@H](C)C(=O)N[C@@H](CC(N)=O)C(=O)N2CCC[C@H]2C(=O)N[C@@H](CN)C(=O)N[C@@H](CC(C)C)C(=O)N2C[C@H](O)C[C@H]2C(=O)N[C@@H](Cc2c[nH]c3ccccc23)C(=O)N[C@@H](CCN)C(=O)N[C@@H](Cc2cn(CC(=O)O)c3cccnc23)C(=O)N1C` [Example 7] ({CH2CO}-Y[NMeA]NP[Dap]L[Hyp]W[Dab][Trp(4-aza,1-CH2COOH)][NMeNle][NMeNle]LCGD(X3)-OH; thioether N-14), for which the IC50 is 1.1 to 9 nM.

For the compound `CCCC[C@H]1C(=O)N(C)[C@@H](CCCC)C(=O)N[C@@H](CC(C)C)C(=O)N[C@H](C(=O)NCC(=O)N[C@@H](CC(=O)NCCCOCCOCCOCCCNC(=O)CC[C@H](NC(=O)CCCCCCCCCCCCCCCCC(=O)O)C(=O)O)C(=O)O)CSCC(=O)N[C@@H](Cc2ccc(O)cc2)C(=O)N(C)[C@@H](C)C(=O)N[C@@H](CC(N)=O)C(=O)N2CCC[C@H]2C(=O)N[C@@H](CN)C(=O)N[C@@H](CC(C)C)C(=O)N2C[C@H](O)C[C@H]2C(=O)N[C@@H](Cc2c[nH]c3ccccc23)C(=O)N[C@@H](CCN)C(=O)N[C@H](Cc2cn(CC(=O)O)c3ncccc23)C(=O)N1C` [Example 14] ({CH2CO}-Y[NMeA]NP[Dap]L[Hyp]W[Dab][X2][NMeNle][NMeNle]LCGD(X3)-OH; thioether N-14), the IC50 was 10 to 60 nM.

For `CCCC[C@H]1C(=O)N(C)[C@@H](CCCC)C(=O)N[C@@H](CC(C)C)C(=O)N[C@H](C(=O)NCC(=O)N[C@@H](CC(=O)NCCCOCCOCCOCCCNC(=O)CC[C@H](NC(=O)CCCCCCCCCCCCCCC(=O)O)C(=O)O)C(=O)O)CSCC(=O)N[C@@H](Cc2ccc(O)cc2)C(=O)N(C)[C@@H](C)C(=O)N[C@@H](CC(N)=O)C(=O)N2CCC[C@H]2C(=O)N[C@@H](CN)C(=O)N[C@@H](CC(C)C)C(=O)N2C[C@H](O)C[C@H]2C(=O)N[C@@H](Cc2c[nH]c3ccccc23)C(=O)N[C@@H](CCN)C(=O)N[C@@H](Cc2cn(CC(=O)O)c3ccc(OC)cc23)C(=O)N1C` [Example 21] ({CH2CO}-Y[NMeA]NP[Dap]L[Hyp]W[Dab][X6][NMeNle][NMeNle]LCGD(X1)-OH; thioether N-14), the IC50 was in the range of 1.1 to 9 nM.

Turning to `CCCC[C@H]1C(=O)N(C)[C@@H](CCCC)C(=O)N[C@@H](CC(C)C)C(=O)N[C@H](C(=O)NCC(=O)N[C@@H](CC(=O)NCCCOCCOCCOCCCNC(=O)CC[C@H](NC(=O)CCCCCCCCCCCCCCC(=O)O)C(=O)O)C(=O)O)CSCC(=O)N[C@@H](Cc2ccc(O)cc2)C(=O)N(C)[C@@H](C)C(=O)N[C@@H](CC(N)=O)C(=O)N2CCC[C@H]2C(=O)N[C@@H](CN)C(=O)N[C@@H](CC(C)C)C(=O)N2C[C@H](O)C[C@H]2C(=O)N[C@@H](Cc2c[nH]c3ccccc23)C(=O)N[C@@H](CCN)C(=O)N[C@@H](Cc2cn(CC(=O)OC)c3ccccc23)C(=O)N1C` [Example 16] ({CH2CO}-Y[NMeA]NP[Dap]L[Hyp]W[Dab][Trp(1-CH2CO2Me)][NMeNle][NMeNle]LCGD(X1)-OH; thioether N-14), the IC50 lay within 1.1 to 9 nM.

For the compound `CCCC[C@H]1C(=O)N(C)[C@@H](CCCC)C(=O)N[C@@H](CC(C)C)C(=O)N[C@H](C(=O)N[C@@H](Cc2cn(CCOCCOCCOCCOCCOCCOCCOCCOCCOCCOCCOCCNC(=O)CC[C@H](NC(=O)CCCCCCCCCCCCCCCCC(=O)O)C(=O)O)nn2)C(=O)O)CSCC(=O)N[C@@H](Cc2ccc(O)cc2)C(=O)N(C)[C@@H](C)C(=O)N[C@@H](CC(N)=O)C(=O)N2CCC[C@H]2C(=O)N[C@@H](CN)C(=O)N[C@@H](CC(C)C)C(=O)N2C[C@H](O)C[C@H]2C(=O)N[C@@H](Cc2c[nH]c3ccccc23)C(=O)N[C@@H](CCN)C(=O)NC(Cc2cn(CC(=O)O)c3ncccc23)C(=O)N1C` (stereo partly drawn) [Example 25], the IC50 was in the range of 10 to 60 nM.

The values are drawn from patent publication US11066445B2, “Immunomodulators acting as antagonists of PD-1” (Bristol-Myers Squibb Company, priority 2017, dated 2021).
